Laboratory results from the supplement of paper PMC10307832.

Key:
Assay in all cases: relative viability (nuclei count vs DMSO), 5 days (fraction); higher = more cells survive
[1] = compound: C1/C(=C\C2=CC=CS2)/C(=O)/C(=C/C3=CC=CS3)/C1 + Cc1cc(Nc2cc(N3CCN(C)CC3)nc(Sc3ccc(NC(=O)C4CC4)cc3)n2)n[nH]1 [Tozasertib] (partner 0.1 µM)
Outline: (§1)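 Lung cancer cell lines in 1536-well plates were dosed by pin tool the day after seeding, either with one drug alone or with a fixed anchor-drug dose plus five library-drug doses (not always all listed) in √10 steps. After 5 days, cells were fixed and their nuclei stained in one step (final 0.05% Triton X-100, 1% formaldehyde, 1 ug/ml Hoechst), then counted on 4× images. Relative viability is the nuclei count in treated wells divided by that in vehicle wells. Values are medians of duplicate plates.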

[2] = compound: C[C@]12O[C@H](C[C@]1(O)CO)n1c3ccccc3c3c4c(c5c6ccccc6n2c5c31)CNC4=O [Lestaurtinib] + CS(=O)(=O)N1CCN(Cc2cc3nc(-c4cccc5[nH]ncc45)nc(N4CCOCC4)c3s2)CC1 [Pictilisib] (partner 1 µM)
Outline: as §1

Lestaurtinib + Olaparib = compound: C[C@]12O[C@H](C[C@]1(O)CO)n1c3ccccc3c3c4c(c5c6ccccc6n2c5c31)CNC4=O [Lestaurtinib] + O=C(c1cc(Cc2n[nH]c(=O)c3ccccc23)ccc1F)N1CCN(C(=O)C2CC2)CC1 [Olaparib] (partner 8 µM)
Outline: as §1

[3] = compound: C[C@]12O[C@H](C[C@]1(O)CO)n1c3ccccc3c3c4c(c5c6ccccc6n2c5c31)CNC4=O [Lestaurtinib] + CC(C)C[C@H](NC(=O)[C@H](Cc1ccccc1)NC(=O)c1cnccn1)B(O)O [Bortezomib] (partner 0.002 µM)
Outline: as §1

Cell Line	relative viability ([1]; first compound 0.2 µM)	relative viability ([1]; first compound 0.6325 µM)	relative viability ([1]; first compound 2 µM)	relative viability ([1]; first compound 20 µM)	relative viability ([2]; first compound 0.005 µM)	relative viability ([2]; first compound 0.01581 µM)	relative viability ([2]; first compound 0.05 µM)	relative viability ([2]; first compound 0.1581 µM)	relative viability ([2]; first compound 0.5 µM)	relative viability (Lestaurtinib + Olaparib; first compound 0.005 µM)	relative viability (Lestaurtinib + Olaparib; first compound 0.01581 µM)	relative viability (Lestaurtinib + Olaparib; first compound 0.05 µM)	relative viability (Lestaurtinib + Olaparib; first compound 0.1581 µM)	relative viability (Lestaurtinib + Olaparib; first compound 0.5 µM)	relative viability ([1]; first compound 6.325 µM)	relative viability ([3]; first compound 0.005 µM)	relative viability ([3]; first compound 0.01581 µM)	relative viability ([3]; first compound 0.05 µM)	relative viability ([3]; first compound 0.1581 µM)	relative viability ([3]; first compound 0.5 µM)
NCI-H358	0.101	0.096	0.112	0.11	0.346	0.28	0.28	0.221	0.181	0.548	0.396	0.408	0.322	0.141						
PC-3 [JPC-3]	0.924	0.843	0.824	0.896	0.77	0.736	0.555	0.606	0.408	1.2	1.3	0.818	1.03	0.698	0.746	0.82	0.788	0.738	0.914	0.746
NCI-H1792					0.316	0.302	0.243	0.141	0.129	0.593	0.495	0.434	0.267	0.164		1.29	1.08	0.5	1.07	0.437
NCI-H596	0.726	0.865	1.11	0.995	0.375	0.378	0.375	0.31	0.293	0.646	0.669	0.61	0.66	0.696	0.855	1.16	1.28	0.969	1.29	1.06
RERF-LC-KJ	0.475	0.566	0.533	0.455	0.593	0.235	0.458	0.387	0.243	1.13	1.07	0.961	0.952	0.399	0.46	1.43	1.17	0.908	0.836	0.728
NCI-H322M	0.533	0.439	0.474	0.483	0.493	0.5	0.445	0.443	0.401	0.823	0.622		0.765	0.521	0.454	1.25	1.34	1.13	0.588	0.967
COR-L 105	0.337	0.33	0.316	0.407	0.488	0.405	0.288	0.263	0.212	0.64	0.685	0.792	0.579	0.498		0.893	0.665	0.706	0.521	0.253
NCI-H1944	0.282	0.248	0.259	0.236	0.352	0.313	0.313	0.305	0.248	0.437	0.479	0.34	0.419	0.344	0.241					
EBC-1					0.427	0.402	0.35	0.452	0.21	0.711	0.794	0.695	0.639	0.45		0.495	0.621	0.504	0.43	0.227
SK-MES-1	0.922	0.977	0.942	0.831	0.322	0.312	0.259	0.262	0.177	0.782	0.676	0.448	0.33	0.175	0.818					
NCI-H1563					0.635	0.709	0.618	0.638	0.536							0.938	0.836	0.741	0.957	0.705
NCI-H1648	0.598	0.559	0.467	0.4							0.979		1.08	0.478						
NCI-H1299					0.558	0.502	0.222	0.305	0.133	0.994	1.06	0.814	0.89	0.721		1.04	0.982	1.03	0.843	0.751
A549					0.61	0.588	0.184	0.251	0.0856	0.299	0.238	0.271	0.282	0.158						
NCI-H1793	0.394	0.297	0.347	0.258	0.319	0.224	0.235	0.34	0.263	0.97	1.05	0.549	0.848	0.482	0.338					
NCI-H1623	0.479	0.437	0.423	0.489											0.394					
NCI-H1703					0.254	0.217	0.201	0.173	0.132	0.437	0.285	0.145	0.212	0.123		0.31	0.359	0.308	0.137	0.117
NCI-H2170	0.689	0.716	0.73	0.728	0.285	0.257	0.304	0.293	0.223	0.551	0.596	0.407	0.45	0.206	0.563					
NCI-H1395	0.767	0.879	0.91	0.754	0.597	0.542	0.536	0.463	0.405	0.498	0.494	0.426	0.406	0.369	0.686					
NCI-H522	0.6	0.506	0.523	0.583						0.741	0.617	0.665	0.617	0.429	0.549					
Calu-6					0.875	0.751	0.357	0.308	0.142	0.572		0.457	0.388	0.252		1.07	0.875	0.744	0.562	0.184
LK-2	0.157	0.155	0.196	0.175	0.57	0.648	0.481	0.433	0.28	0.767	0.896	0.602	0.466	0.133	0.168					
